# Source: publication PMC3448056, “2-Benzamido-N-(1H-benzo[d]imidazol-2-yl)thiazole-4-carboxamide derivatives as potent inhibitors of CK1δ/ε” (Amino Acids, 2012)
# Values joined by “and” are separate entries in the source; they are usually repeats but may differ in a detail not shown here. Identical values can stand only once.
# How the values were obtained:
# Type in all cases: biochemical
# CK1δkd = biological target: T1, CK1δkd (Rattus norvegicus, UniProt Q06486); assay: In vitro kinase assay, CK1δ kinase domain; details: for activity against CK1δkd (in words, SAR discussion): kinase assays using a CK1 specific substrate
# T1 construct: Recombinant CK1δ kinase domain (CK1δkd, NEB, Frankfurt am Main, Germany); purchased NEB, Frankfurt am Main, Germany
# T1 sequence (Q06486 9-277 limits assumed): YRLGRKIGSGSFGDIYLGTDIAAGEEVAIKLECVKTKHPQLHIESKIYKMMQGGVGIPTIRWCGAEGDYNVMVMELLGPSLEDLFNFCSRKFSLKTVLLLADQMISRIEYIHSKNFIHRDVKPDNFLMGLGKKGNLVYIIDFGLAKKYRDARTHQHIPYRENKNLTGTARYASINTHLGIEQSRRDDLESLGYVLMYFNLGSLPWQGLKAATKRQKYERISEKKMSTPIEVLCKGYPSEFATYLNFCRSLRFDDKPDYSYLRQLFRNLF
# GST-rat CK1δ = biological target: T2, GST-rat CK1δ (Rattus norvegicus, UniProt Q06486); assay: In vitro kinase assay, GST-rat CK1δ
# T2 construct: made in house; host or cells: bacteria (pGEX-2T)
# human CK1ε = biological target: T3, human CK1ε (Homo sapiens, UniProt P49674); assay: In vitro kinase assay, CK1ε
# T3 construct: purchased Invitrogen, Karlsruhe, Germany
# GST-mouse CK1δTV1 = biological target: T4, GST-mouse CK1δTV1 (Mus musculus, UniProt Q9DC28); assay: In vitro kinase assay, GST-mouse CK1δTV1; details: 0.01 mM ATP, substrate GST-mouse p53^1-64; mean ± SD; read-out: IC50 (μM) GST-CK1δ TV1
# T4 construct: made in house; host or cells: bacteria (pGEX-2T)
# Source text: (§1) CK1δTV1 and 2 (transcription variants 1 and 2) were PCR amplified from mouse cDNA (5′-primer TV1 and 2: 5′-[…]-3′, 3′-primer TV1: 5′-[…]-3′, 3′-primer TV2: 5′-[…]-3′) and cloned into pcDNA3.1/V5-His© TOPO® TA cloning vector (Invitrogen, Karlsruhe, Germany) before being subcloned into pGEX-2T expression vector via BamHI to generate plasmids pGEX-2T-mouse CK1δTV1 (FP1170) and pGEX-2T-mouse CK1δTV2 (FP1171).
# (§2) Expression and purification of the GST-fusion proteins GST-mouse p53^1–64 (FP267), GST-rat CK1δ (FP449), GST-rat CK1δ^M82F (FP1153), GST-mouse CK1δTV1 (FP1170), and GST-mouse CK1δTV2 (FP1171) was carried out as described elsewhere (Wolff et al. [2005]). Expression of fusion proteins FP1170 and 1171 was either performed at 37°C for 2 h, or at 15°C for 14 h. FP449 and FP1153 were always expressed at 15°C for 14 h.
# (§3) In vitro kinase assays were carried out in the presence of various potential inhibitors of CK1δ at an ATP concentration of 0.01 mM and dimethyl sulfoxide (DMSO) solvent control as described previously (Knippschild et al. [1996]). Where indicated higher ATP concentrations (0.05, 0.1, 0.25 and 0.5 mM) were used. The fusion protein GST-mouse p53^1−64 (FP267) was used as substrate. Recombinant CK1δ kinase domain (CK1δkd, NEB, Frankfurt am Main, Germany), GST-rat CK1δ (FP449), GST-rat CK1δ^M82F (FP1153), GST-mouse CK1δTV1, GST-mouse CK1δTV2 and recombinant human CK1ε (Invitrogen, Karlsruhe, Germany) were used as sources of enzyme. Phosphorylated proteins were separated by SDS-PAGE and the protein bands were visualized on dried gels by autoradiography. The phosphorylated protein bands were excised and quantified by Cherenkov counting.
# GST-mouse CK1δTV2 = biological target: T5, GST-mouse CK1δTV2 (Mus musculus, UniProt Q9DC28); assay: In vitro kinase assay, GST-mouse CK1δTV2; details: 0.01 mM ATP, substrate GST-mouse p53^1-64; mean ± SD; read-out: IC50 (μM) GST-CK1δ TV2
# T5 construct: made in house; host or cells: bacteria (pGEX-2T)
# T5 sequence (Q9DC28 1-409 isoform Q9DC28-2): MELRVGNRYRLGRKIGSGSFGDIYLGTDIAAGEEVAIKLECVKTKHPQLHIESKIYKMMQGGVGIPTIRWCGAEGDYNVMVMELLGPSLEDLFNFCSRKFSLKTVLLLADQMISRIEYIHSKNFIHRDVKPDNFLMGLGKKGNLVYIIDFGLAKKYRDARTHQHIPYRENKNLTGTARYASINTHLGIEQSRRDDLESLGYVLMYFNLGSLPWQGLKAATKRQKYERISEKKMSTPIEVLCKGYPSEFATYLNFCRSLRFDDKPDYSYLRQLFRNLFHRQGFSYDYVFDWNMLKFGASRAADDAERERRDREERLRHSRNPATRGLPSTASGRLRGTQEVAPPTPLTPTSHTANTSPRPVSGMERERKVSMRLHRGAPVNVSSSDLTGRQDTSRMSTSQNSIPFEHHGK
# Source text: as §1, §2, §3
# GST-rat CK1δ^M82F = biological target: T6, GST-rat CK1δ^M82F (Rattus norvegicus, UniProt Q06486, M82F); assay: In vitro kinase assay, gatekeeper mutant; details: inhibitor at its determined IC50 concentration (Fig. 7)
# T6 construct: made in house; host or cells: bacteria (pGEX-2T)
# T6 sequence (Q06486 1-415 M82F): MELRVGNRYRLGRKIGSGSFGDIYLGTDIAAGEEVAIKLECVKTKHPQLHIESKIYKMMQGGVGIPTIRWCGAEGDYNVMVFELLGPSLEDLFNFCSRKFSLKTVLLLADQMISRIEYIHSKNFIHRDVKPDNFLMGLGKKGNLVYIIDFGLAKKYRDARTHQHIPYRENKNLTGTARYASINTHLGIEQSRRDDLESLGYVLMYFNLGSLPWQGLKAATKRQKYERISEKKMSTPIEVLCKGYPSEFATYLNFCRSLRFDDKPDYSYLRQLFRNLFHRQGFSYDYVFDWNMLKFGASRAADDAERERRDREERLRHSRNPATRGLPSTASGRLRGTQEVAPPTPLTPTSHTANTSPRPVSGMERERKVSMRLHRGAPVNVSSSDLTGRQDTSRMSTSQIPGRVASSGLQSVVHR
# Procedure: For the expression of wt rat CK1δ and rat CK1δ^M82F as glutathione S-transferase fusion proteins the plasmids pGEX-2T-CK1δ (FP449) (Knippschild et al. [1997]) and pGEX-2T-CK1δ^M82F (FP1153) (Peifer et al. [2009]) were used.
# as §2, §3
# Previously it has been shown that methionine 82 plays an important role as gatekeeper residue in the docking mode of isoxazoles to the ATP binding pocket since mutation of methionine 82 to phenylalanine blocks binding of this class of CK1δ specific inhibitors (Peifer et al. [2009]) while still binding ATP. Therefore, we now analyzed the effects of exchanging methionine 82 to phenylalanine on the ability of compounds 4, 5 and 6 to inhibit CK1δ activity.
# [1] = symbol, tested range 10–0.005 μM
# [2] = 0.01 mM ATP, substrate GST-mouse p53^1-64, mean ± SD
# T2 sequence (Q06486 whole entry): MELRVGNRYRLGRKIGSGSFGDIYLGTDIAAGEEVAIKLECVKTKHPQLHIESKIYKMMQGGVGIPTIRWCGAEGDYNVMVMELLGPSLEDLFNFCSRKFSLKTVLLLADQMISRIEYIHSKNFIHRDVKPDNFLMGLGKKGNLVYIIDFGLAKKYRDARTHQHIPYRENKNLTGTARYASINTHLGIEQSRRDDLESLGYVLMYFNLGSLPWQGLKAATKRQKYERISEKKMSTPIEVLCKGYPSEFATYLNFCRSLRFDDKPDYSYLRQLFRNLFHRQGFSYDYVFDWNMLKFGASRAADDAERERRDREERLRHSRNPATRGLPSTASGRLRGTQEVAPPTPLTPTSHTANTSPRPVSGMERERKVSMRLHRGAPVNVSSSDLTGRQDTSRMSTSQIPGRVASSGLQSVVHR
# T3 sequence (P49674 whole entry): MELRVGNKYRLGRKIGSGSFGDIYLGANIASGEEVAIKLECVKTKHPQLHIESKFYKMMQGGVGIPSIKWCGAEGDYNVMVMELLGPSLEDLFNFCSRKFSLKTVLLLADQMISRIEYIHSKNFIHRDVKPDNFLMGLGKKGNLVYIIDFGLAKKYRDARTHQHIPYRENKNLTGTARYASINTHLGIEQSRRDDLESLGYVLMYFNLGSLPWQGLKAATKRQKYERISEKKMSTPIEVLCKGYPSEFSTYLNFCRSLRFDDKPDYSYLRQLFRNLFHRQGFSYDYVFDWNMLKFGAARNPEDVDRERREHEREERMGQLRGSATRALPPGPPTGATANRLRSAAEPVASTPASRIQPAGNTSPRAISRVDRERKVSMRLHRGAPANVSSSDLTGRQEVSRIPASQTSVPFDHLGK
# T4 sequence (Q9DC28 whole entry): as the sequence (Q06486 whole entry) above
"activity against CK1δkd (in words, SAR discussion) (CK1δkd)",IC50 (CK1δkd; [2]),IC50 (GST-rat CK1δ; [2]) [µM],Compound,also measured
lost,–,–,"Cn1c(NC(=O)c2csc(NC(=O)c3ccccc3OC(F)(F)F)n2)nc2ccccc21 [Compound 3, N-(1-Methyl-1H-benzo[d]imidazol-2-yl)-2-(2-(trifluoromethoxy)benz-amido)thiazole-4-carboxamide]",IC50 (CK1δkd; [1]): > 10 µM; IC50 (GST-rat CK1δ; [1]): > 10 µM
kinase activity was even more decreased,0.647 ± 0.04 µM,0.991 ± 0.21,"O=C(Nc1nc2ccccc2o1)c1csc(NC(=O)c2ccccc2OC(F)(F)F)n1 [Compound 10, N-(Benzo[d]oxazol-2-yl)-2-(2-(trifluoromethoxy)benzamido)thiazole-4-carboxamide]",–
diminished activity,1.23 ± 0.41 µM,5.19 ± 1.14,"CS(=O)(=O)c1ccc2[nH]c(NC(=O)c3csc(NC(=O)c4ccccc4OC(F)(F)F)n3)nc2c1 [Compound 2, N-(5-(Methylsulfonyl)-1H-benzo[d]imidazol-2-yl)-2-(2-(trifluoromethoxy)benzamido)thiazole-4-carboxamide]",–
–,0.542 ± 0.05 µM,1.04 ± 0.31,"O=C(Nc1nc2ccc(C(F)(F)F)cc2[nH]1)c1csc(NC(=O)c2ccco2)n1 [Compound 7, 2-(Furan-2-carboxamido)-N-(6-(trifluoromethyl)-1H-benzo[d]imidazol-2-yl)thiazole-4-carboxamide]",–
–,0.409 ± 0.12 µM,0.326 ± 0.19,"O=C(Nc1nc(C(=O)Nc2nc3ccc(C(F)(F)F)cc3[nH]2)cs1)c1ccncc1 [Compound 4, 2-(Isonicotinamido)-N-(6-(trifluoromethyl)-1H-benzo[d]imidazol-2-yl)thiazole-4-carboxamide]","inhibition of CK1δkd in initial screen (CK1δkd; inhibitor 10 μM, 10 μM ATP (Fig. 1a)): significant inhibition; mode of inhibition (CK1δkd; inhibitor at IC50 concentration, ATP 0.01-0.5 mM (Fig. 6)): ATP competitive inhibitors; inhibition of CK1ε in initial screen (human CK1ε; inhibitor 10 μM, 10 μM ATP (Fig. 1b)): significant inhibition; IC50 (GST-mouse CK1δTV1): 0.18 ± 0.03 µM; IC50 (GST-mouse CK1δTV2): 0.505 ± 0.04 µM; kinase activity of GST-CK1δ^M82F in comparison with inhibition of GST-wt CK1δ (GST-rat CK1δ^M82F): much more affected; GST-wt CK1δ activity in the presence of inhibitor (GST-rat CK1δ; inhibitor at its determined IC50 concentration (Fig. 7)): clearly decreased"
–,1.12 µM and 0.73 µM,1.19 ± 0.39,"O=C(Nc1nc2ccccc2s1)c1csc(NC(=O)c2ccccc2OC(F)(F)F)n1 [Compound 9, 2-(2-Trifluoromethoxy-benzoylamino)-thiazole-4-carboxylic acid benzothiazol-2-ylamide]",–
–,1.12 ± 0.19 µM,0.935 ± 0.55,"O=C(Nc1nc2ccccc2[nH]1)c1csc(NC(=O)c2ccccc2OC(F)(F)F)n1 [Compound 8, N-(1H-Benzo[d]imidazol-2-yl)-2-(2-(trifluoromethoxy)benzamido)thiazole-4-carboxamide]",–
diminished activity,0.865 ± 0.14 µM,1.97 ± 0.85,"COC(=O)c1ccc2[nH]c(NC(=O)c3csc(NC(=O)c4ccccc4OC(F)(F)F)n3)nc2c1 [Compound 1, Methyl 2-(2-(2-(trifluoromethoxy)benzamido)-thiazole-4-carboxamido)-1H-benzo[d]imidazole-5-carboxylate]",IC50 (human CK1ε; [2]): 0.496 ± 0.1 µM
